Consider 3 compounds from patent US20100204202A1, “DRUG FOR ALLEVIATING MOTOR COMPLICATIONS OR PSYCHIATRIC SYMPTOMS OF PARKINSON'S DISEASE” (Asubio Pharma Co., Ltd., priority 2007, published 2010).

“Also recorded” adds a separate entry of the source. Counter-ions that a name gives are not always drawn. Like-named read-outs stand apart in the source and are kept apart here.

In assay [1] the target is T1, human dopamine D2S receptors (Homo sapiens, UniProt P14416).
T1 construct: expressed in transfected cells; host or cells: CHO
T1 sequence (P14416 1-414 isoform P14416-2): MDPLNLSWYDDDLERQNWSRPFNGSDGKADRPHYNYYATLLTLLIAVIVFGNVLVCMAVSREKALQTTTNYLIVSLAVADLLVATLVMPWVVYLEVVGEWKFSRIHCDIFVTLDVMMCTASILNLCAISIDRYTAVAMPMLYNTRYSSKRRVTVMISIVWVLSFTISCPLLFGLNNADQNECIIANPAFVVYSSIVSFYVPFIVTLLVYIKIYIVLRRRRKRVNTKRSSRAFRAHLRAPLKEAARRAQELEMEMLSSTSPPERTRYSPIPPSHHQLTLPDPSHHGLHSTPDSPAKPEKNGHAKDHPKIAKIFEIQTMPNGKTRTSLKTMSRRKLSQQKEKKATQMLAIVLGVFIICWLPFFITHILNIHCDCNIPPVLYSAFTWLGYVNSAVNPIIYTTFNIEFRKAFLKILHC
In words: Binding affinity test on human dopamine D2S receptors ([3H]spiperone, CHO membranes). Particulars: for Ki: Dopamine D2S; for binding affinity (in words): human dopamine D2S receptors. Here is the method:
(§1) For the test, membrane specimens prepared from Chinese hamster ovary (CHO) cells expressing human dopamine D2S receptors were used. To a 50 mM Tris-HCl (pH 7.4) buffer containing 1.4 mM ascorbic acid, 0.001% BSA, and 150 mM NaCl, [^3H] spiperone (final concentration 0.16 nM), the test sample solution and a membrane specimen were added. The reaction solution was allowed to react at 25° C. for 2 hours, then the reaction solution was filtered with a cell harvester, the filtered filter paper was transferred to a measurement vial, a liquid scintillator was added, and the receptor bond radioactivity remaining on the filter paper was determined with a liquid scintillation counter. The nonspecific bonds were defined as the amount of bonds in the presence of 10 μM haloperidol.
(§2) The following formula was used to calculate the binding inhibition rate: […]
(§3) From the binding inhibition rate, a regression formula was used to calculate the 50% inhibition concentration. Furthermore, the inhibition constant (Ki) was calculated.

The target in assay [2] is T1, human dopamine D2S receptors. Description: Agonist/antagonist assay, [35S]GTPgammaS binding, human dopamine D2S receptors. The assay is classed as biochemical. The note with it: for EC50 / Emax / IC50: Dopamine D2S; for antagonist activity (in words): human dopamine D2S receptors. Here is the method:
(§4) For the tests, membrane specimens prepared from Chinese hamster ovary (CHO-K1) cells expressing human serotonin 1A receptors, Chinese hamster ovary (CHO) cells expressing human dopamine D2L receptors, Chinese hamster ovary (CHO) cells expressing human dopamine D2S receptors and Chinese hamster ovary (CHO) cells expressing human dopamine D3 receptors were used. In the agonist assays, for the serotonin 1A receptors, [^35S] GTPγS (final concentration 0.1 nM), a GDP solution (final concentration 3 μM), the test sample solution and a membrane specimen were added to a 20 mM Hepes-NaOH buffer (pH 7.4) containing 100 mM NaCl, 3 mM MgCl2 and 10 μg/mL saponin and allowed to react at 25° C. for 30 minutes. Further, for the dopamine (D2L, D2S and D3) receptors, [^35S] GTPγS (i.e., final concentration 0.1 nM), a GDP solution (final concentration 3 μM), the test sample solution and a membrane specimen were added to a 20 mM Hepes-NaOH buffer (pH 7.4) containing 100 mM NaCl, 10 mM MgCl2, 1 mM DTT and 1 mM EDTA and allowed to react at 30° C. for 15 minutes (in the case of D2L receptors) or for 30 minutes (in the cases of D2S and D3 receptors). Further, in the antagonist assays, except for adding to the reaction solutions 10 μM 5-carboxamide tryptamine (5-CT) (in the case of serotonin 1A receptors), 3 μM dopamine (in the cases of D2L and D2S receptors), or 0.1 μM dopamine (in the case of D3 receptors), operations were performed similar to the agonistic tests. After the end of the reaction, the reaction solution was filtered with a cell harvester, the filtered filter paper was transferred to a measurement vial, a liquid scintillator was added, and the radioactivity of the [^35S] GTPγS remaining on the filter paper was determined by a liquid scintillation counter. The human serotonin 1A receptor and human dopamine (D2L, D2S, and D3) receptor agonist/antagonist activities of the test sample were expressed as the rates of increase, when making the increase in [^35S] GTPγS bonds due to 10 μM 5-CT (in the case of serotonin 1A receptors), 3 μM dopamine (in the cases of D2L and D2S receptors), or 0.1 μM dopamine (in the case of D3 receptors) 100%. From the bond increasing rate, a regression formula was used to calculate the 50% reaction concentration (EC50) and 50% inhibition concentration (IC50).

Assay [3] concerns the target T2, human dopamine D2L receptors (Homo sapiens, UniProt P14416).
T2 construct: expressed in transfected cells; host or cells: CHO
In words: Binding affinity test on human dopamine D2L receptors ([3H]spiperone, CHO membranes). The note with it: for Ki: Dopamine D2L; for binding affinity (in words): human dopamine D2L receptors. As for the experimental part: as §1, with “dopamine D2L” for “dopamine D2S”, “was added” for “was added,”, “determined by” for “determined with”
The following formula was used to calculate the binding inhibition rate:
[amount of [^3H] spiperone bonds in the presence of 10 μM haloperidol]}/{[amount of [^3H] spiperone bonds in the absence of test sample]−[amount of [^3H] spiperone bonds in the presence of 10 μM haloperidol]}
as §3

Assay [4] has as its target T3, human serotonin 1A receptors (Homo sapiens, UniProt P08908).
T3 construct: expressed in transfected cells; host or cells: CHO-K1
T3 sequence (P08908 1-422): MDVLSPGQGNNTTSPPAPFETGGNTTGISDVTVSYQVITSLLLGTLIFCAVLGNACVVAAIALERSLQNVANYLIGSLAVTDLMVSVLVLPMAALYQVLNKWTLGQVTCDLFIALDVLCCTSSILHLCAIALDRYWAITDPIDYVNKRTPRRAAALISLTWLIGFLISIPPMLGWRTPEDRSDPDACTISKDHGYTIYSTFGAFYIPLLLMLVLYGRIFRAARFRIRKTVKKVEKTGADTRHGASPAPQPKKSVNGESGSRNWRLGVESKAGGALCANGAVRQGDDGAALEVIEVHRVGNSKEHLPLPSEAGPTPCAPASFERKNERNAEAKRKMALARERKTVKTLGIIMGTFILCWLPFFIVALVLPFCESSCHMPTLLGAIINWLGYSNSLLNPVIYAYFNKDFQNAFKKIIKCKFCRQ
In words: Binding affinity test on human serotonin 1A receptors ([3H]8-OH-DPAT, CHO-K1 membranes). Particulars: for Ki: Serotonin 1A; for binding affinity (in words): human serotonin 1A receptors. As for the experimental part: For the test, membrane specimens prepared from Chinese hamster ovary (CHO-K1) cells expressing human serotonin 1A receptors were used. To a 50 mM Tris-HCl buffer (pH 7.4) including 5 mM CaCl2, 0.1% ascorbic acid, and 10 μg/mL saponin, [^3H] […] The reaction solution was allowed to react at 25° C. for 60 minutes, then the reaction solution was filtered with a cell harvester, the filtered filter paper was transferred to a measurement vial, a liquid scintillator was added and the receptor bond radioactivity remaining on the filter paper was determined by a liquid scintillation counter. The nonspecific bonds were defined as the amount of bonds in the presence of 10 μM serotonin.
as §2
Furthermore, the inhibition constant (Ki) was calculated.

In assay [5] the target is T3, human serotonin 1A receptors. Description: Agonist/antagonist assay, [35S]GTPgammaS binding, human serotonin 1A receptors. The note with it: for EC50 / Emax / IC50: Serotonin 1A; for agonist activity (in words): human serotonin 1A receptors. The assay is classed as biochemical. As for the experimental part:
as §4
On the technique in general: GTPγS is a poorly hydrolysed GTP analogue; its binding reports G protein activation.

Setting [6] is: 3 μM dopamine = 100%, read-out: Agonist assay Emax.
[7] abbreviates: with 3 μM dopamine, read-out: Antagonist assay Emax.
[8] abbreviates: 10 μM 5-CT = 100%, read-out: Agonist assay Emax.
Setting [9] is: with 10 μM 5-CT, read-out: Antagonist assay Emax.

T2 sequence (P14416 whole entry): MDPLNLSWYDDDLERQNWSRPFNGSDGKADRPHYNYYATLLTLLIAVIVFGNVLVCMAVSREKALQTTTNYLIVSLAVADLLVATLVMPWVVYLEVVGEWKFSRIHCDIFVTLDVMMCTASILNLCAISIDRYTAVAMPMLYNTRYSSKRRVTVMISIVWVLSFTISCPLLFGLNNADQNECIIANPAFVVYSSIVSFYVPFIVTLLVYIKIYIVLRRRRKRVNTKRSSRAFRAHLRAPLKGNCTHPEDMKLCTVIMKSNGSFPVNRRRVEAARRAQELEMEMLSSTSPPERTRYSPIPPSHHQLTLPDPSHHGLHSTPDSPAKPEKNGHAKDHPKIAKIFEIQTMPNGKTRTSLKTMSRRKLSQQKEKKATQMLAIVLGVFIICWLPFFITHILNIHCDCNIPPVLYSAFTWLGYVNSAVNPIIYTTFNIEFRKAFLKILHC

By Ki is commonly meant the equilibrium dissociation constant of an inhibitor or competing ligand from its target. The low end stands for a stronger hold on the target, the high end for a looser hold on the target. In general, EC50 refers to the midpoint of the concentration-response curve. Broadly, the Emax is the greatest response seen or fitted, relative to the assay's reference. The IC50 is the point on the concentration scale where inhibition reaches its midpoint. Read a low IC50 as greater potency in that assay. With `Cl.Cl.O=c1[nH]c2cccc(C3CCCN(Cc4cncc(-c5ccc(F)cc5)c4)C3)c2o1` (centres unmarked) [7-(1-{[5-(4-fluorophenyl)pyridin-3-yl]methyl}piperidin-3-yl)-1,3-benzoxazol-2(3H)-one dihydrochloride], the Ki in assay [1] was 6.34 nM; in assay [3], 5.42 nM; in assay [4] it was 2.67 nM. Also, the “binding affinity (in words)” value in assay [1] and in assay [3] was “comparatively strong binding affinity” throughout. Moreover, the EC50 was greater than 500 nM in assay [2] and 108 nM in assay [5]. In addition, the maximal effect (Emax) turned out to be 27% in assay [2] (setting [6]), 69% in assay [2] (setting [7]), 100% in assay [5] (setting [8]) and 14% in assay [5] (setting [9]). The IC50 was 17.9 nM in assay [2] (with 3 μM dopamine) and greater than 20000 nM in assay [5] (with 10 μM 5-CT). For the same compound, the “antagonist activity (in words)” value in assay [2] is listed as “antagonist activity”.
In the case of `O=C1c2ccccc2OC=C(Cl)N1CCCCN1CC=C(c2ccccn2)CC1` [SUN N4057, 3-chloro-4,5-dihydro-4-{4-[4-(2-pyridyl)-1,2,3,6-tetrahydropyridin-1-yl]butyl}-1,4-benzoxazepin-5-one.dihydrochloride-dihydrate], the figures for the Ki in assay [1], in assay [3] and in assay [4] were 162 nM, 161 nM and 0.0249 nM, respectively. Further, the 50% effective concentration (EC50) is greater than 500 nM in assay [2] and 2.41 nM in assay [5]. For the same compound, the Emax was 41% in assay [2] (setting [6]), 25% in assay [2] (setting [7]), 100% in assay [5] (setting [8]) and 3% in assay [5] (setting [9]). Besides, the 50% inhibitory concentration (IC50) is greater than 500 nM in assay [2] (with 3 μM dopamine) and greater than 100 nM in assay [5] (with 10 μM 5-CT). For the same compound, the “antagonist activity (in words)” value in assay [2] was “does not have an antagonist action”. Moreover, the “binding affinity (in words)” value in assay [4] is given as “particularly strong binding affinity”. Also, the “agonist activity (in words)” value in assay [5] is “particularly strong in activity; also recorded: powerful agonist action”.
As to `Cl.Cl.Fc1ccc(-c2cncc(CNC[C@H]3CCc4ccccc4O3)c2)cc1` [Sarizotan, 1-[(2R)-3,4-dihydro-2H-chromen-2-yl]-N-{[5-(4-fluorophenyl)pyridin-3-yl]methyl}methanamine dihydrochloride], the Ki came to 2.56 nM in assay [1], 3.29 nM in assay [3] and 0.0293 nM in assay [4]. Also, the “binding affinity (in words)” value in assay [1] is listed as “comparatively strong binding affinity”; in assay [3], “comparatively strong binding affinity”; in assay [4], “particularly strong binding affinity”. For the same compound, the values for the concentration for a half-maximal effect (EC50) in assay [2] and in assay [5] were greater than 500 nM and 2.4 nM, respectively. Further, the Emax is 5% in assay [2] (setting [6]), 74% in assay [2] (setting [7]), 100% in assay [5] (setting [8]) and 4% in assay [5] (setting [9]). Further, the results for the IC50 in assay [2] (with 3 μM dopamine) and in assay [5] (with 10 μM 5-CT) were 66.7 nM and greater than 100 nM, respectively. Besides, the “antagonist activity (in words)” value in assay [2] was “antagonist activity”. In addition, in assay [5], the “agonist activity (in words)” value was “particularly strong in activity”.
